Test results published in the NIST ThermoML archive (doi:10.1016/j.fluid.2007.06.006).
± gives the expanded uncertainty stated by the source.

Conditions: Liquid

vapor or sublimation pressure (355.83 K) | vapor or sublimation pressure (365.99 K) | vapor or sublimation pressure (373.87 K) | vapor or sublimation pressure (380.27 K) | vapor or sublimation pressure (385.71 K) | vapor or sublimation pressure (390.45 K) | vapor or sublimation pressure (392.2 K) | vapor or sublimation pressure (377.95 K) | vapor or sublimation pressure (389.37 K) | vapor or sublimation pressure (398.01 K) | vapor or sublimation pressure (405.04 K) | vapor or sublimation pressure (411.02 K) | vapor or sublimation pressure (416.25 K) | vapor or sublimation pressure (418.18 K) | SMILES
26.7 ± 0.2 kPa | 40 ± 0.2 kPa | 53.3 ± 0.2 kPa | 66.7 ± 0.2 kPa | 80 ± 0.2 kPa | 93.3 ± 0.3 kPa | 98.7 ± 0.3 kPa |  |  |  |  |  |  |  | COCC(C)O (centres undefined) [1-methoxy-2-propanol]
 |  |  |  |  |  |  | 26.7 ± 0.2 kPa | 40 ± 0.2 kPa | 53.3 ± 0.2 kPa | 66.7 ± 0.2 kPa | 80 ± 0.2 kPa | 93.3 ± 0.3 kPa | 98.7 ± 0.3 kPa | COCC(C)OC(C)=O (centres undefined) [1-methoxy-2-propyl acetate]
